Measurements as given in ChEMBL document CHEMBL1255386, “Early viral kinetics of telbivudine and entecavir: results of a 12-week randomized exploratory study with patients with HBeAg-positive chronic hepatitis B” (Antimicrob Agents Chemother, 2010).

Key:
Homo sapiens [1] = species: Homo sapiens; test: Toxicity in HBeAg-positive chronic hepatitis B patient assessed as chest discomfort at 0.5 mg/day; assay type: organism-based; conditions: in vivo
Homo sapiens [2] = species: Homo sapiens; test: Toxicity in HBeAg-positive chronic hepatitis B patient assessed as upper respiratory tract infection at 0.5 mg/day; assay type: organism-based; conditions: in vivo
Homo sapiens [3] = species: Homo sapiens; test: Toxicity in HBeAg-positive chronic hepatitis B patient assessed as nasophayngitis at 0.5 mg/day; assay type: organism-based; conditions: in vivo
Homo sapiens [4] = species: Homo sapiens; test: Toxicity in HBeAg-positive chronic hepatitis B patient assessed as peripheral neuropathy at 0.5 mg/day; assay type: organism-based; conditions: in vivo
Homo sapiens [5] = species: Homo sapiens; test: Toxicity in HBeAg-positive chronic hepatitis B patient assessed as abdominal discomfort at 0.5 mg/day; assay type: organism-based, Abdomen; conditions: in vivo
Homo sapiens [6] = species: Homo sapiens; test: Toxicity in HBeAg-positive chronic hepatitis B patient assessed as neutropenia at 0.5 mg/day; assay type: organism-based; conditions: in vivo
Homo sapiens [7] = species: Homo sapiens; test: Toxicity in HBeAg-positive chronic hepatitis B patient assessed as conjunctival hypermia at 0.5 mg/day; assay type: organism-based, Conjunctiva; conditions: in vivo
Homo sapiens [8] = species: Homo sapiens; test: Toxicity in HBeAg-positive chronic hepatitis B patient assessed as hordeolum at 0.5 mg/day; assay type: organism-based; conditions: in vivo
Homo sapiens [9] = species: Homo sapiens; test: Toxicity in HBeAg-positive chronic hepatitis B patient assessed as increase in AST level at 0.5 mg/day; assay type: organism-based; conditions: in vivo
Homo sapiens [10] = species: Homo sapiens; test: Toxicity in HBeAg-positive chronic hepatitis B patient assessed as thrombocytopenia at 0.5 mg/day; assay type: organism-based; conditions: in vivo
Homo sapiens [11] = species: Homo sapiens; test: Toxicity in HBeAg-positive chronic hepatitis B patient assessed as hyperphosphatemia at 0.5 mg/day; assay type: organism-based; conditions: in vivo
Homo sapiens [12] = species: Homo sapiens; test: Hepatotoxicity in HBeAg-positive chronic hepatitis B patient assessed as reduction in alanine aminotransferase level at 0.5 mg/day after 12 weeks (reference value: 170.2 IU/liter); assay type: toxicity, organism-based; conditions: in vivo, 2016 h
Homo sapiens [13] = species: Homo sapiens; test: Toxicity in HBeAg-positive chronic hepatitis B patient assessed as increase in blood CK level at 0.5 mg/day; assay type: organism-based; conditions: in vivo
Homo sapiens [14] = species: Homo sapiens; test: Toxicity in HBeAg-positive chronic hepatitis B patient assessed as myalgia at 0.5 mg/day; assay type: organism-based; conditions: in vivo
Homo sapiens [15] = species: Homo sapiens; test: Toxicity in HBeAg-positive chronic hepatitis B patient assessed as proteinuria at 0.5 mg/day; assay type: organism-based; conditions: in vivo
Homo sapiens [16] = species: Homo sapiens; test: Toxicity in HBeAg-positive chronic hepatitis B patient assessed as muscular weakness at 0.5 mg/day; assay type: organism-based; conditions: in vivo
Homo sapiens [17] = species: Homo sapiens; test: Toxicity in HBeAg-positive chronic hepatitis B patient assessed as nausea at 0.5 mg/day; assay type: organism-based; conditions: in vivo
Hepatitis B virus [18] = test: Antiviral activity against Hepatitis B virus in HBeAg-positive chronic hepatitis B patient assessed as mean viral clearance rate at 0.5 mg/day; assay type: functional
Homo sapiens [19] = species: Homo sapiens; test: Toxicity in HBeAg-positive chronic hepatitis B patient assessed as increase in ALT level at 0.5 mg/day; assay type: organism-based; conditions: in vivo
Hepatitis B virus [20] = test: Antiviral activity against Hepatitis B virus in HBeAg-positive chronic hepatitis B patient assessed as mean rate of infected cell loss at 0.5 mg/day; assay type: functional
Homo sapiens [21] = species: Homo sapiens; test: Toxicity in HBeAg-positive chronic hepatitis B patient assessed as gingival bleeding at 0.5 mg/day; assay type: organism-based; conditions: in vivo
Hepatitis B virus [22] = test: Antiviral activity against Hepatitis B virus in HBeAg-positive chronic hepatitis B patient assessed as mean efficiency factor of blocking virus production at 0.5 mg/day; assay type: functional
Homo sapiens [23] = species: Homo sapiens; test: Toxicity in HBeAg-positive chronic hepatitis B patient assessed as myringitis at 0.5 mg/day; assay type: organism-based; conditions: in vivo
Homo sapiens [24] = species: Homo sapiens; test: Toxicity in HBeAg-positive chronic hepatitis B patient assessed as vaginal hemorrhage at 0.5 mg/day; assay type: organism-based; conditions: in vivo
Homo sapiens [25] = species: Homo sapiens; test: Toxicity in HBeAg-positive chronic hepatitis B patient assessed as vomiting at 0.5 mg/day; assay type: organism-based; conditions: in vivo
Hepatitis B virus [26] = test: Antiviral activity against Hepatitis B virus in HBeAg-positive chronic hepatitis B patient assessed as HBV DNA level in serum at 600 mg/day after 12 weeks (reference value: 10.29 log10copies/ml); assay type: functional
Homo sapiens [27] = test: Toxicity in HBeAg-positive chronic hepatitis B patient assessed as facial edema at 0.5 mg/day; assay type: organism-based; conditions: in vivo
Homo sapiens [28] = species: Homo sapiens; test: Toxicity in HBeAg-positive chronic hepatitis B patient assessed as insomnia at 0.5 mg/day; assay type: organism-based; conditions: in vivo
Homo sapiens [29] = species: Homo sapiens; test: Toxicity in HBeAg-positive chronic hepatitis B patient assessed as upper abdominal pain at 0.5 mg/day; assay type: organism-based, Abdomen; conditions: in vivo
Homo sapiens [30] = species: Homo sapiens; test: Toxicity in HBeAg-positive chronic hepatitis B patient assessed as dyspnea at 0.5 mg/day; assay type: organism-based; conditions: in vivo
Homo sapiens [31] = species: Homo sapiens; test: Toxicity in HBeAg-positive chronic hepatitis B patient assessed as headache at 0.5 mg/day; assay type: organism-based; conditions: in vivo
Homo sapiens [32] = species: Homo sapiens; test: Toxicity in HBeAg-positive chronic hepatitis B patient assessed as neutropenia at 600 mg/day; assay type: organism-based; conditions: in vivo
Homo sapiens [33] = species: Homo sapiens; test: Toxicity in HBeAg-positive chronic hepatitis B patient assessed as nasophayngitis at 600 mg/day; assay type: organism-based; conditions: in vivo
Homo sapiens [34] = species: Homo sapiens; test: Toxicity in HBeAg-positive chronic hepatitis B patient assessed as hyperphosphatemia at 600 mg/day; assay type: organism-based; conditions: in vivo
Homo sapiens [35] = species: Homo sapiens; test: Toxicity in HBeAg-positive chronic hepatitis B patient assessed as increase in AST level at 600 mg/day; assay type: organism-based; conditions: in vivo
Homo sapiens [36] = species: Homo sapiens; test: Toxicity in HBeAg-positive chronic hepatitis B patient assessed as peripheral neuropathy at 600 mg/day; assay type: organism-based; conditions: in vivo
Hepatitis B virus [37] = test: Antiviral activity against Hepatitis B virus in HBeAg-positive chronic hepatitis B patient assessed as mean rate of infected cell loss at 600 mg/day; assay type: functional
Homo sapiens [38] = species: Homo sapiens; test: Toxicity in HBeAg-positive chronic hepatitis B patient assessed as upper abdominal pain at 600 mg/day; assay type: organism-based, Abdomen; conditions: in vivo
Hepatitis B virus [39] = test: Antiviral activity against Hepatitis B virus in HBeAg-positive chronic hepatitis B patient assessed as HBV DNA level in serum at 0.5 mg/day after 12 weeks (reference value: 9.72 log10copies/ml); assay type: functional
Homo sapiens [40] = species: Homo sapiens; test: Toxicity in HBeAg-positive chronic hepatitis B patient assessed as chest discomfort at 600 mg/day; assay type: organism-based; conditions: in vivo
Homo sapiens [41] = species: Homo sapiens; test: Toxicity in HBeAg-positive chronic hepatitis B patient assessed as muscular weakness at 600 mg/day; assay type: organism-based; conditions: in vivo
Homo sapiens [42] = species: Homo sapiens; test: Toxicity in HBeAg-positive chronic hepatitis B patient assessed as proteinuria at 600 mg/day; assay type: organism-based; conditions: in vivo
Homo sapiens [43] = species: Homo sapiens; test: Toxicity in HBeAg-positive chronic hepatitis B patient assessed as insomnia at 600 mg/day; assay type: organism-based; conditions: in vivo
Homo sapiens [44] = species: Homo sapiens; test: Hepatotoxicity in HBeAg-positive chronic hepatitis B patient assessed as reduction in alanine aminotransferase level at 600 mg/day after 12 weeks (reference value: 163.1 IU/liter); assay type: toxicity, organism-based; conditions: in vivo, 2016 h
Homo sapiens [45] = test: Toxicity in HBeAg-positive chronic hepatitis B patient assessed as facial edema at 600 mg/day; assay type: organism-based; conditions: in vivo
Homo sapiens [46] = species: Homo sapiens; test: Toxicity in HBeAg-positive chronic hepatitis B patient assessed as vaginal hemorrhage at 600 mg/day; assay type: organism-based; conditions: in vivo
Homo sapiens [47] = species: Homo sapiens; test: Toxicity in HBeAg-positive chronic hepatitis B patient assessed as myalgia at 600 mg/day; assay type: organism-based; conditions: in vivo
Homo sapiens [48] = species: Homo sapiens; test: Toxicity in HBeAg-positive chronic hepatitis B patient assessed as nausea at 600 mg/day; assay type: organism-based; conditions: in vivo
Homo sapiens [49] = species: Homo sapiens; test: Toxicity in HBeAg-positive chronic hepatitis B patient assessed as dyspnea at 600 mg/day; assay type: organism-based; conditions: in vivo
Homo sapiens [50] = species: Homo sapiens; test: Toxicity in HBeAg-positive chronic hepatitis B patient assessed as vomiting at 600 mg/day; assay type: organism-based; conditions: in vivo
Hepatitis B virus [51] = test: Antiviral activity against Hepatitis B virus in HBeAg-positive chronic hepatitis B patient assessed as mean viral clearance rate at 600 mg/day; assay type: functional
Homo sapiens [52] = species: Homo sapiens; test: Toxicity in HBeAg-positive chronic hepatitis B patient assessed as increase in ALT level at 600 mg/day; assay type: organism-based; conditions: in vivo
Homo sapiens [53] = species: Homo sapiens; test: Toxicity in HBeAg-positive chronic hepatitis B patient assessed as hordeolum at 600 mg/day; assay type: organism-based; conditions: in vivo
Homo sapiens [54] = species: Homo sapiens; test: Toxicity in HBeAg-positive chronic hepatitis B patient assessed as myringitis at 600 mg/day; assay type: organism-based; conditions: in vivo
Homo sapiens [55] = species: Homo sapiens; test: Toxicity in HBeAg-positive chronic hepatitis B patient assessed as thrombocytopenia at 600 mg/day; assay type: organism-based; conditions: in vivo
Homo sapiens [56] = species: Homo sapiens; test: Toxicity in HBeAg-positive chronic hepatitis B patient assessed as gingival bleeding at 600 mg/day; assay type: organism-based; conditions: in vivo
Homo sapiens [57] = species: Homo sapiens; test: Toxicity in HBeAg-positive chronic hepatitis B patient assessed as conjunctival hypermia at 600 mg/day; assay type: organism-based, Conjunctiva; conditions: in vivo
Homo sapiens [58] = species: Homo sapiens; test: Toxicity in HBeAg-positive chronic hepatitis B patient assessed as abdominal discomfort at 600 mg/day; assay type: organism-based, Abdomen; conditions: in vivo
Hepatitis B virus [59] = test: Antiviral activity against Hepatitis B virus in HBeAg-positive chronic hepatitis B patient assessed as mean efficiency factor of blocking virus production at 600 mg/day; assay type: functional
Homo sapiens [60] = species: Homo sapiens; test: Toxicity in HBeAg-positive chronic hepatitis B patient assessed as upper respiratory tract infection at 600 mg/day; assay type: organism-based; conditions: in vivo
Homo sapiens [61] = species: Homo sapiens; test: Toxicity in HBeAg-positive chronic hepatitis B patient assessed as increase in blood CK level at 600 mg/day; assay type: organism-based; conditions: in vivo
Homo sapiens [62] = species: Homo sapiens; test: Toxicity in HBeAg-positive chronic hepatitis B patient assessed as headache at 600 mg/day; assay type: organism-based; conditions: in vivo

Measured: Activity

C=C1[C@H](CO)[C@@H](O)C[C@@H]1n1cnc2c(=O)[nH]c(N)nc21.O [ENTECAVIR]
2%: Homo sapiens [2] | Homo sapiens [17]
99.2%: Hepatitis B virus [22]
1%: Homo sapiens [1] | Homo sapiens [3] | Homo sapiens [8] | Homo sapiens [15] | Homo sapiens [19] | Homo sapiens [23] | Homo sapiens [24] | Homo sapiens [25] | Homo sapiens [27] | Homo sapiens [28] | Homo sapiens [31]
0%: Homo sapiens [5] | Homo sapiens [6] | Homo sapiens [7] | Homo sapiens [9] | Homo sapiens [10] | Homo sapiens [11] | Homo sapiens [14] | Homo sapiens [21] | Homo sapiens [29] | Homo sapiens [30]
1.002 day⁻¹: Hepatitis B virus [18]
116.3 IU/L: Homo sapiens [12]
0.071 day⁻¹: Hepatitis B virus [20]
3 patients: Homo sapiens [13]
Non-toxic: Homo sapiens [4] | Homo sapiens [16]
6.5: Hepatitis B virus [26]

Cc1cn([C@@H]2C[C@@H](O)[C@H](CO)O2)c(=O)[nH]c1=O [TELBIVUDINE]
0.075 day⁻¹: Hepatitis B virus [37]
6.6: Hepatitis B virus [39]
108 IU/L: Homo sapiens [44]
3%: Homo sapiens [52]
0.809 day⁻¹: Hepatitis B virus [51]
1%: Homo sapiens [32] | Homo sapiens [34] | Homo sapiens [35] | Homo sapiens [38] | Homo sapiens [40] | Homo sapiens [47] | Homo sapiens [49] | Homo sapiens [55] | Homo sapiens [56] | Homo sapiens [57] | Homo sapiens [58] | Homo sapiens [60]
0%: Homo sapiens [33] | Homo sapiens [42] | Homo sapiens [43] | Homo sapiens [45] | Homo sapiens [46] | Homo sapiens [48] | Homo sapiens [50] | Homo sapiens [53] | Homo sapiens [54] | Homo sapiens [61] | Homo sapiens [62]
Non-toxic: Homo sapiens [36] | Homo sapiens [41]
99.1%: Hepatitis B virus [59]
